This is an account of results in PMC7142328 (Journal of natural products, 2018).

The nature of one series: In-vivo toxicity. As to conditions: male, Swiss-Webster, mouse, in vivo, iv.
Series [1] has as its target T1, rat α4β2 nAChR (Rattus norvegicus, UniProt P09483+P12390). It is filed as binding.
The target in series [2] is T2, rat α3β4 nAChR (Rattus norvegicus, UniProt P04757+P12392). Put plainly: cell-based. Format: cell-based.
Series [3] concerns the target T3, rat α7 nAChR (Rattus norvegicus, UniProt Q05941). It is filed as cell-based.
For series [4], the target named is T2, rat α3β4 nAChR. Format: binding.
The target of the next series is T4, 5-HT3A receptor (Rattus norvegicus, UniProt P35563).
T4 sequence (P35563 24-483): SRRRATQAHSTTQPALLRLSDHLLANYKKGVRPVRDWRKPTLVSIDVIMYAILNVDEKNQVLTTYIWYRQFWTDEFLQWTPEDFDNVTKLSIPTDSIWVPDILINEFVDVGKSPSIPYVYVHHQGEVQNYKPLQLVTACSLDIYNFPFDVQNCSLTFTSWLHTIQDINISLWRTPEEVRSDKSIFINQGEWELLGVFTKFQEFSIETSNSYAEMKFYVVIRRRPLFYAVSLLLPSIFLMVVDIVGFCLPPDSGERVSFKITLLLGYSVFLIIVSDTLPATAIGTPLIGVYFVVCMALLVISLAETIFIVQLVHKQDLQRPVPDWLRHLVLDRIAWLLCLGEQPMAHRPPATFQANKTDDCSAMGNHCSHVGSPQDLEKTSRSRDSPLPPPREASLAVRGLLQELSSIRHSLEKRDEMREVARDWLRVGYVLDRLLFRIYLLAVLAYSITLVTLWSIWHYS
Put plainly: Two-electrode voltage clamp electrophysiology in Xenopus oocytes, 5-HT3A. It is filed as cell-based. (Two-electrode voltage clamp holds a large cell at a set potential and records current.)

For another series, the target named is rat α3β2 nAChR (Rattus norvegicus, UniProt P04757+P12390). Put plainly: Two-electrode voltage clamp electrophysiology in Xenopus oocytes, α3β2. Format: cell-based.
The next series addresses Human α4β2 nAChR (Homo sapiens, UniProt P17787+P43681). It is filed as cell-based. As to conditions: for agonist character, α4β2: relative to nicotine.
Series [5] concerns the target T1, rat α4β2 nAChR. Format: cell-based.
The target of series [6] is native nAChR in rat forebrain (Rattus norvegicus, UniProt P09483+P12390). Format: binding.
Series [7] relates to Swiss-Webster mice. The following applies: cited from earlier work.
Series [8] concerns Swiss-Webster mice. Put plainly: In-vivo toxicity. As to conditions: mice; for signs of toxicity: intravenous.
Series [9] deals with T3, rat α7 nAChR. It is filed as binding.
A further series relates to nAChR. Put plainly: Overall nAChR pharmacology, summary statements. As to conditions: most receptors tested.

T2 sequence (P12392 21-495): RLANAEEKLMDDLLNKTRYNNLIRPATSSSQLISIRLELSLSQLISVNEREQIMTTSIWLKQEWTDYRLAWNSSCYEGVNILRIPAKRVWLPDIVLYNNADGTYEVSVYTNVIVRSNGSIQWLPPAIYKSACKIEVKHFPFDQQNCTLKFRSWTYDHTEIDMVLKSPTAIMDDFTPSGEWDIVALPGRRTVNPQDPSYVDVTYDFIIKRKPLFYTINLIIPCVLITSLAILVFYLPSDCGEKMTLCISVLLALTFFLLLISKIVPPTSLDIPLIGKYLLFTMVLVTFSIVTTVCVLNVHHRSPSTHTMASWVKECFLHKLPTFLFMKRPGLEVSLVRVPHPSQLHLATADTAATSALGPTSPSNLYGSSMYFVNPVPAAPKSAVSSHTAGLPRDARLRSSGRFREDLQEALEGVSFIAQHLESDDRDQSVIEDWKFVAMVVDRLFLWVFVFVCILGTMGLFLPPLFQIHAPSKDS
T2 sequence (P04757 26-499): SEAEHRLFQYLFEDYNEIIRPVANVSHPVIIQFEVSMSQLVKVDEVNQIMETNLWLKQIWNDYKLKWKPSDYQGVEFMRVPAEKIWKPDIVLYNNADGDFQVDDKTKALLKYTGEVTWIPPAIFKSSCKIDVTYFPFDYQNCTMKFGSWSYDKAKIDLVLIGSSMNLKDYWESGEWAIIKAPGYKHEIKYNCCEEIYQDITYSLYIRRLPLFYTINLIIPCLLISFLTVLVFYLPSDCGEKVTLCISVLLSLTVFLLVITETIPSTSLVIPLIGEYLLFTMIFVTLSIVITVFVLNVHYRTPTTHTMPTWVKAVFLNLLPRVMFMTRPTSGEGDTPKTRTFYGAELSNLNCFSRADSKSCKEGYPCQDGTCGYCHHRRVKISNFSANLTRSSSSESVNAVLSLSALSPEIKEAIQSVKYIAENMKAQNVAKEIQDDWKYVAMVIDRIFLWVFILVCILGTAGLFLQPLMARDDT
T3 sequence (Q05941 23-502): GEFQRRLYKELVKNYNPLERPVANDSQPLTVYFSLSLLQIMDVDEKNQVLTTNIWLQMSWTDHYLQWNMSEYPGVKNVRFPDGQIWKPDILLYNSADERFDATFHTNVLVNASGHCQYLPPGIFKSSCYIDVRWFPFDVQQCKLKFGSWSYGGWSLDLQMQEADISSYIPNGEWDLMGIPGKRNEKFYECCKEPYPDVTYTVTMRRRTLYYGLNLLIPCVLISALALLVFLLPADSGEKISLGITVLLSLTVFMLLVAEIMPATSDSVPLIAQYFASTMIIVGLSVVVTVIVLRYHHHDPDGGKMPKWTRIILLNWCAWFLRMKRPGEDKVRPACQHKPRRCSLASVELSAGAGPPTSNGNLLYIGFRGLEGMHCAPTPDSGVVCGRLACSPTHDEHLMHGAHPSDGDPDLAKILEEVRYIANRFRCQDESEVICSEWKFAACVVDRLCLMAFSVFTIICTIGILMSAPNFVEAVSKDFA
Chain of Human α4β2 nAChR (P43681 29-627 limits assumed): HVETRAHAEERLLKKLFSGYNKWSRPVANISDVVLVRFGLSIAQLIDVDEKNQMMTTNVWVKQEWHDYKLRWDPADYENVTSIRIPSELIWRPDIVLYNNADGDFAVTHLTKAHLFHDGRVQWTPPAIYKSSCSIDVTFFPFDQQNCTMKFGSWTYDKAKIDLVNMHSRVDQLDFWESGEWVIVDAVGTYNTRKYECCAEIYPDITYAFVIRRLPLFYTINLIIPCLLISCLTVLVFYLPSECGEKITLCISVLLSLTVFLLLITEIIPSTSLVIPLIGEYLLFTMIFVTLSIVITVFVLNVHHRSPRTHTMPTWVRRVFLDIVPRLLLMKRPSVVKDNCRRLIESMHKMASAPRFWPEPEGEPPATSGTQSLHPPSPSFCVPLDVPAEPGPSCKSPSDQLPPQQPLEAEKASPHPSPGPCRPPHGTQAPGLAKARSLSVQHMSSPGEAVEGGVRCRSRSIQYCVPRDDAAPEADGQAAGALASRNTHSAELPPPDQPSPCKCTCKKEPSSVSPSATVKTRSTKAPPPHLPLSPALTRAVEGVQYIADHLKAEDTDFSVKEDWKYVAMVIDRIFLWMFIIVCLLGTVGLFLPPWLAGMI
Chain of Human α4β2 nAChR (P17787 26-502): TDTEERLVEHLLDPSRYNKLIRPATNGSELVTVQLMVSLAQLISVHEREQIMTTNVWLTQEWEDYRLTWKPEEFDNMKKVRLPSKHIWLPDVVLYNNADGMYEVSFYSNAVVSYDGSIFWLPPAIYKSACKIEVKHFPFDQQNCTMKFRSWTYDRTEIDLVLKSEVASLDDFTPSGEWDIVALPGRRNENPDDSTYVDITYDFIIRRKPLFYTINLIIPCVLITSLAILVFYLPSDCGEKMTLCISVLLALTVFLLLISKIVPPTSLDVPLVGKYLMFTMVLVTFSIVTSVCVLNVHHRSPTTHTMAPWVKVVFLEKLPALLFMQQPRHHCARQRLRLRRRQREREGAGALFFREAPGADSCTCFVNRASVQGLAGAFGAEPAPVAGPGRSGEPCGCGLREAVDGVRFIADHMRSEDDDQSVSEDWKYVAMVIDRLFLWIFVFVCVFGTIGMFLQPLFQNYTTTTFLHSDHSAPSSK
T1 sequence (P09483 31-630): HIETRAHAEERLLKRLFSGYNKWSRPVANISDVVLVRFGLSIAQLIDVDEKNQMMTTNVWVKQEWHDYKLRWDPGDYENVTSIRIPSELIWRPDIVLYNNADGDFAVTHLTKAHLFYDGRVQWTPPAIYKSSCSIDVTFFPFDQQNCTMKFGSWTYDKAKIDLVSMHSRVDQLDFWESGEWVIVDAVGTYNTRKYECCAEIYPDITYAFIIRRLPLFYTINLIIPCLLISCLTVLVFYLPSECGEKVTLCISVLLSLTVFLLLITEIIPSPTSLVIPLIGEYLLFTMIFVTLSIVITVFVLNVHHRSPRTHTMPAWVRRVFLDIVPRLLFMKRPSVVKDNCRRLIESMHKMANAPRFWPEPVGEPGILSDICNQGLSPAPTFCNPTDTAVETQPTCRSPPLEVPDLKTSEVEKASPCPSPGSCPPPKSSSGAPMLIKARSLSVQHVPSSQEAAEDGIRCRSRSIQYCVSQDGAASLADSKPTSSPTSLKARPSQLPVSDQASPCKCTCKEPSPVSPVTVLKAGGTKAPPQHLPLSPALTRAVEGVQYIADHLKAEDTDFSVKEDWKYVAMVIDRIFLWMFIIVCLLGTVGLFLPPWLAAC
T1 sequence (P12390 25-500): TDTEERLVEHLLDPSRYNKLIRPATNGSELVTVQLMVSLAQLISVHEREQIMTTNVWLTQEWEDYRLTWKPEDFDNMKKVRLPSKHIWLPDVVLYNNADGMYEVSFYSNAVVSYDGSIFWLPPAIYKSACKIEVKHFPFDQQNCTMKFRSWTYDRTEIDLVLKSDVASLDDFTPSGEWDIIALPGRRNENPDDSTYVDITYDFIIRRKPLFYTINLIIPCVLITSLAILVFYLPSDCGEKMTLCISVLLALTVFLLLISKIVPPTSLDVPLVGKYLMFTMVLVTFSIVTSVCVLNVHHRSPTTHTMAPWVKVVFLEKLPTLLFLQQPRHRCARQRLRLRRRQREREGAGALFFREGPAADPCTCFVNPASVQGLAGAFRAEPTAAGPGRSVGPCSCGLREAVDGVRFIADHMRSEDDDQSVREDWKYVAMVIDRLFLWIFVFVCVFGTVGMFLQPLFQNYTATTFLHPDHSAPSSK
Chain of rat α3β2 nAChR (P04757 26-499): as the sequence (P04757 26-499) above
Chain of rat α3β2 nAChR (P12390 25-500): as the sequence (P12390 25-500) above
Chain of native nAChR in rat forebrain (P12390 25-500): as above
Chain of native nAChR in rat forebrain (P09483 31-630): as the sequence (P09483 31-630) above

With `Clc1ccc2c(n1)OC13CCC1NCC23` (racemic) [(±)-1, phantasmidine], the 50% lethal dose (LD50) – broadly, the dose at which mortality reaches 50% – in the series “In-vivo toxicity” was 0.27 ± 0.19 mg/kg. Also, at rat α4β2 nAChR [1], the “lower binding affinity than epibatidine (2a), α4β2” value is 10 fold. Moreover, the “higher affinity for α4β2 over α3β4 receptors” value on rat α4β2 nAChR [1] (binding) is “at least 30 fold”. Further, on rat α3β4 nAChR [2], the “Eudismic Ratio, 86Rb efflux α3β4” value was 47. For the same compound, at rat α3β4 nAChR [2] (86Rb efflux), the “difference in functional potency vs 2a, α3β4” value was determined as 18 fold. Also, the “agonist character, α3β4” value on rat α3β4 nAChR [2] (86Rb efflux, relative to nicotine) is listed as “near-full agonist”. The “Hillslope α7” value on rat α7 nAChR [3] amounted to 1.8. The “agonist character, α7” value at rat α7 nAChR [3] (vs acetylcholine, oocytes) is listed as “full agonist”. Besides, the “lower binding affinity than epibatidine (2a), α3β4” value at rat α3β4 nAChR [4] came to 50 fold. The “Hillslope 5HT3A” value on 5-HT3A receptor is listed as 1.7. For the same compound, the “agonist character, 5-HT3A” value at 5-HT3A receptor (vs meta-chlorophenylbiguanide (mCPBG), oocytes) is reported as “partial agonist”. Moreover, on rat α3β2 nAChR, the “Hillslope α3β2” value was 1.57. Besides, the “agonist character, α3β2” value at rat α3β2 nAChR (vs acetylcholine, oocytes) is “partial agonist”. Further, at Human α4β2 nAChR, the “Eudismic Ratio, 86Rb efflux α4β2” value was 280. On Human α4β2 nAChR (86Rb efflux), the “difference in functional potency vs 2a, α4β2” value is listed as 8 fold and the “agonist character, α4β2” value is given as “very potent partial agonist”. Also, the “Hillslope α4β2” value on rat α4β2 nAChR [5] was 1.6. Besides, on rat α4β2 nAChR [5] (vs acetylcholine, oocytes), the “agonist character, α4β2” value is recorded as “partial agonist”. The “lower binding affinity than epibatidine (2a), native receptors in rat forebrain” value in [6] was 25 fold.
Consider `Clc1ccc(C2CC3CCC2N3)cn1` (racemic) [(±)-2, epibatidine, reference compound], for which the LD50 in the series “In-vivo toxicity” was 0.0015 ± 0.0003 mg/kg.
Regarding `CN1CCC[C@H]1c1cccnc1` [2S-(−)-Nicotine, reference compound], in the series with Swiss-Webster mice [7], the LD50 in mouse was 0.3 mg/kg. In addition, at rat α3β4 nAChR [2] (read-out: Emax Rat α3β4), the maximum response (Emax) (usually the size of the effect at its maximum, as opposed to the concentration needed) was determined as 107 ± 3%.
For `Clc1ccc2c(n1)O[C@]13CC[C@H]1NC[C@H]23` [(2aR,4aS,9aS)-1, phantasmidine], the “less toxic than racemic 2a” value in the series on Swiss-Webster mice [8] (LD50 comparison) was 48 fold. Moreover, the signs of toxicity entry in the series with Swiss-Webster mice [8] (dose of 40 μg/kg) is “piloerection, slight elevated respiration and complete recovery in less than 1 min”. Besides, the signs of toxicity result in the series with Swiss-Webster mice [8] (dose of 50 μg/kg) was “piloerection, elevated respiration, hyperactivity (running) progressing to tonic clonic seizures and death in less than 30 sec”. Moreover, the “eudismic ratio of toxicity” value in the series on Swiss-Webster mice [8] was “around 100”. Also, the LD50 in “In-vivo toxicity” turned out to be 0.072 ± 0.014 mg/kg. Further, at rat α4β2 nAChR [1] (across the subtypes and forebrain of Table 1), the “higher affinity than the distomer ent-1” value is 30-44 fold. Moreover, on rat α7 nAChR [3], the “Eudismic Ratio, electrophysiology α7” value was found to be 5 and the “Hillslope α7” value turned out to be 1.5. In addition, the “affinity less than 2a, α7” value at rat α7 nAChR [9] is reported as 2 fold. For the same compound, the “Hillslope α4β2” value on rat α4β2 nAChR [5] is 1.8. In the series with nAChR, the “less potent than epibatidine” value is on record as ~ 10 fold and the “more potent than nicotine” value is recorded as ~ 100 fold.
As to `Clc1ccc2c(n1)O[C@@]13CC[C@@H]1NC[C@@H]23` [(2aS,4aR,9aR)-ent-1], the “Hillslope α7” value on rat α7 nAChR [3] turned out to be 1.3. Further, the “agonist character, α4β2” value at Human α4β2 nAChR (86Rb efflux) is reported as “full agonist”. The “Hillslope α4β2” value on rat α4β2 nAChR [5] came to 1.7.
For `CC(=O)OCC[N+](C)(C)C` [Acetylcholine, reference compound], the “Hillslope α7” value at rat α7 nAChR [3] came out at 1.5. The “Imax α7” value at rat α7 nAChR [3] (normalized to 1 mm acetylcholine) stood at 1.0 ± 0.1. Further, at rat α4β2 nAChR [5], the “Hillslope α4β2” value is given as 24 ± 6 (1.0 ± 0.1) 1.0 and the “Imax α4β2” value is 24 ± 6 (1.0 ± 0.1) 1.0.
As for `CO[C@H]1CC=C2CCN3CCC4=C(CC(=O)OC4)[C@]23C1` [DHβE, dihydro-β-erythroidine, reference compound], the “block of currents induced by 10 nM (±)-1” value at rat α4β2 nAChR [5] (2 min pre-application of 10 nM DHβE, n=4, α3β2 and α4β2 currents) is recorded as “completely blocked”.
Consider `CN1[C@@H]2CC[C@H]1C[C@@H](OC(=O)c1c[nH]c3ccccc13)C2` [tropisetron, reference compound], for which the “block of currents induced by 100 μM (±)-1” value on 5-HT3A receptor is given as “completely blocks”.
